Reference: publication PMC12951568, “Identifying Structural Factors Governing the Photodynamic Activity of Phthalocyanines” (Journal of Medicinal Chemistry, 2026)
Read-outs that look alike come from different tables or passages of the source.

Tests used:
[1] = tested on: HeLa (human cervical carcinoma); conditions: 12 h incubation, Xe-lamp 15 min, λ > 570 nm, 11.2 J/cm^2; mean ± SD; determined previously under the same conditions at the same workplace and published; ref number not given; read-out: EC50 (nM) HeLa; cited from earlier work
[2] = tested on: SK-MEL-28 (human skin melanoma); assay: Photodynamic activity (phototoxicity, neutral red uptake) on SK-MEL-28; assay type: cell-based; conditions: 12 h incubation, Xe-lamp 15 min, λ > 570 nm, 11.2 J/cm^2; mean ± SD; t.w. = this work
Experimental: (§1) Detailed in vitro studies involving subcellular localization and determination of the EC50 in three different cell lines (human cervical carcinoma–HeLa, human breast adenocarcinoma–MCF-7, and human skin melanoma–SK-MEL-28) were performed. A broadband light source (ozone-free 450 W Xe-lamp, Newport) equipped with the long-pass filter Schott OG570 was used (12.4 mW/cm^2, 15 min, 11.2 J/cm^2).
(§2) For the cytotoxicity experiments (phototoxicity), cells were seeded at 100 μL per well into 96-well plates (TPP, Switzerland) at a density of 7.5 × 10^3 (HeLa) or 1.0 × 10^4 (MCF-7 and SK-MEL-28) cells per well. Cells were left to grow for 24 h (until they reached confluency) in a controlled environment of a CO2 incubator (37 °C, 5% CO2 atmosphere, constant high humidity). Subsequently, studied compounds were added in a wide concentration range and incubated with the cells for 12 h. Cells were washed; fresh cell culture medium was added, and the cells were irradiated using a 450 W Xe lamp (Newport, USA). The lamp was equipped with a long pass filter (Newport OG570) and an 8 cm water filter (λ > 570 nm, 12.4 mW/cm^2, 15 min, 11.2 J/cm^2). Cellular viability was assessed after an additional 24 h by the neutral red (NR; Sigma, Merck, USA) uptake assay. At least three independent experiments, each in triplicate, were performed. The soluble NR was measured at λ = 540 nm using a Tecan Infinite 200 M plate reader (Tecan, Austria). The viability of each experimental group was expressed as the percentage of the untreated cells (100% viability) after subtraction of the signal from cells treated with a lethal dose of hydrogen peroxide (0% viability). […] EC50 values were calculated, and graphs were created by using GraphPad Prism 10.3.1 (Graph Pad software, USA).

[3] = tested on: HeLa (human cervical carcinoma); assay: Photodynamic activity (phototoxicity, neutral red uptake) on HeLa; assay type: cell-based
Experimental: as §1, §2

[4] = biological target: bovine serum albumin (BSA) (Bos taurus, UniProt P02769); assay: Interaction with bovine serum albumin (absorption and emission spectra in PBS); assay type: binding; conditions: 1 μM Pc in PBS, BSA 17.5, 35 and 100 μM
[5] = Fluorescence quantum yield, comparative method; assay type: physicochemical; conditions: in DMF; ZnPc as reference
Experimental: The fluorescence quantum yields (ΦF) were determined by a comparative method with ZnPc as the reference (ΦF = 0.32 in THF). The ΦF values were calculated using the following formula: ϕFS=ϕFR(F^S/F^R)(1−10^−A^R/1−10^−A^S)(η^S/η^R)^2 where F is the integrated area under the emission spectrum and A is the absorbance at the excitation wavelength. Superscripts R and S indicate the reference and sample, respectively. η stands for the refractive index of the solvent. Absorption in the Q-band was kept below 0.05 to eliminate the inner filter effect. Excitation wavelengths were the same as those used for emission spectra (see above). The emission wavelengths were set to their emission maxima to avoid exceeding the detector limit with stimated error ± 15%.

[6] = Absorption and fluorescence emission spectra in DMF; assay type: physicochemical; conditions: in DMF
Experimental: An absorption spectrum of 2.475 mL of solvent (water, DMF, or PBS) was taken (i.e., absorption spectrum of baseline); then, 25 μL of stock solution was added to reach the final concentration of 1 μM in the cuvette, and the absorption and emission spectra were taken. Baseline of the solvent was subtracted from the obtained absorption spectrum to get the final absorption spectrum of the sample.

[7] = Quantum yield of singlet oxygen production, comparative method with DPBF scavenger; assay type: physicochemical; conditions: in DMF, ZnPc as reference
Experimental: Eight μL of the 100 μM stock solution of the dye in DMF (or DMF + water or water; see above) was added. A xenon lamp (100 W, ozone free XE DC short arc lamp, New port) was used to irradiate the sample while stirring. The incident light was filtered through a water filter (6 cm) and cut off filter OG530 eliminating heat and light under 523 nm, respectively. […] The decrease of DPBF in solution with irradiation time was monitored at 415 nm. The values of ΦΔ of the dyes were calculated by the following equation: φΔS=φΔ[…] is the slope of the plot of the dependence of ln([…] 0 and A t being the absorbances of the DPBF at 415 nm before irradiation and after irradiation time t, respectively. I aT is the total amount of light absorbed by the dye sample. Superscripts R and S indicate the reference and sample, respectively. I aT is calculated as a sum of intensities of the absorbed light I a at wavelengths from 523 to 850 nm (step 0.5 nm). Light under 523 nm is completely filtered by an OG530 filter, and light above 850 nm is not absorbed by the studied dye sample. I a at a given wavelength is calculated using Beer-Lambert'[…]) where I 0 is transmittance of the filter at the given wavelength and A is the absorbance of the dye at this wavelength. All experiments were performed three times, and the data presented is the mean value of the three obtained results with estimated error ± 10%.

[8] = Fluorescence lifetime in DMF; assay type: physicochemical
Source text: 1 Photophysical Data of Investigated Derivatives in DMF ^a | column: τF1/ns; τF2/ns

[9] = tested on: MCF-7 (human breast adenocarcinoma); parameters: method as in number not printed in Table 2; conditions: 12 h incubation, Xe-lamp 15 min, λ > 570 nm, 11.2 J/cm^2; mean ± SD; determined previously under the same conditions at the same workplace and published; ref number not given; cited from earlier work
[10] = Log P, partition between n-octanol and PBS; assay type: physicochemical; conditions: partition coefficient between 1-octanol and PBS
Experimental: 400 μL portion of n-octanol and 400 μL of PBS buffer were mixed in a plastic Eppendorf vial. Then, 20 μL of the 100 μM stock solution of the sample (see above) was added to this mixture, vortexed for 5 min at rt, and then centrifuged for 10 min (10 000 rpm, rt). 50 μL of each of these layers was taken into 2.5 mL of DMF in a quartz cuvette, and their emission spectra (excitation wavelengths in Table ) were recorded. The log P value was then computed using the area under the curve of the emission spectra of n-octanol (F oct) and PBS buffer (F PBS) layers as follows: logP=log(Foct/FPBS) Triplicate measurements were performed, and the data reported are the mean of the obtained results.

[11] = tested on: MCF-7 (human breast adenocarcinoma); assay: Photodynamic activity (phototoxicity, neutral red uptake) on MCF-7; assay type: cell-based
Experimental: as §1, §2

[12] = in DMF; ref number not given; cited from earlier work
[13] = 12 h incubation, Xe-lamp 15 min, λ > 570 nm, 11.2 J/cm^2, mean ± SD, t.w. = this work

bovine serum albumin (BSA), sequence (P02769 25-607): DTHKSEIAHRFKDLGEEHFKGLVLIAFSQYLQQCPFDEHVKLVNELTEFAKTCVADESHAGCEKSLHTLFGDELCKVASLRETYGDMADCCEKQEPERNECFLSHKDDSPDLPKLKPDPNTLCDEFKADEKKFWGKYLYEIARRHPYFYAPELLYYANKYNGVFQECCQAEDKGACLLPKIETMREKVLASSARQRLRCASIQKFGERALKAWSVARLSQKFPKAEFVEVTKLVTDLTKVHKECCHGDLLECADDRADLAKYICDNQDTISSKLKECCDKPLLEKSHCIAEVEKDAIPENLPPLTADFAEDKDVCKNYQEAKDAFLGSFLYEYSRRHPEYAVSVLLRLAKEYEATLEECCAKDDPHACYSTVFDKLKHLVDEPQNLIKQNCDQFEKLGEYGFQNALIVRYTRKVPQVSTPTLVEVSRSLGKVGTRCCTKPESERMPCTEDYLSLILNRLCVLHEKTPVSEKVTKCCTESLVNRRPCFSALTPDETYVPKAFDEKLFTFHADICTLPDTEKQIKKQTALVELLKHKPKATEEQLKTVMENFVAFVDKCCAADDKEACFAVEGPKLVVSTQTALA

Compound | EC50 [1] [nM] | EC50 [2] [nM] | fold higher photodynamic activity vs symmetrical hydrophilic counterparts ([3]; HeLa, unsymmetrical anionic A1Zn, A2Zn vs A3Zn, A4Zn) | Interaction with BSA: disaggregation/monomerization and changes in absorption and fluorescence emission spectra [4] | ΦF, fluorescence quantum yield [5] | λF, fluorescence emission maximum [6] [nm] | ΦΔ, quantum yield of singlet oxygen production [7] | τF1, fluorescence lifetime (relative amplitude in brackets) [8] | τF2, fluorescence lifetime (relative amplitude in brackets) [8] | EC50 [9] [nM] | Log P [10] | ε, extinction coefficient [6] | λA, absorption maximum in the Q-band [6] [nm] | increase in activity of C12Zn in comparison with C3Zn (fold) ([11]; MCF-7 cells) | increase in activity of C12Zn in comparison with C3Zn (fold) ([3]; HeLa cells) | EC50 [11, 13] [nM] | EC50 [3, 13] [nM] | ΦΔ of the reference standard [12]
O=C([O-])c1cc(Oc2cc3c(cc2Oc2cc(C(=O)[O-])cc(C(=O)[O-])c2)C2=Nc4c5ccccc5c5[n]4[Zn][n]4c(c6ccccc6c4=NC3=N2)=NC2=NC(=N5)c3ccccc32)cc(C(=O)[O-])c1.[Na+].[Na+].[Na+].[Na+] [A1Zn] | 290 ± 78 | 530 ± 30 | ~21 | complete | 0.035 | 682 | 0.26 | 0.44 (15%) ns | 2.51 (85%) ns | 453 ± 26 | –2.70 |  |  |  |  |  |  | 
Cc1cc(Cn2cc[n+](C)c2)c(Oc2c3c(c(C)c(C)[n+]2C)C2=NC3=Nc3c4cc(SC(C)(C)C)c(SC(C)(C)C)cc4c4[n]3[Zn][n]3c(c5cc(SC(C)(C)C)c(SC(C)(C)C)cc5c3=N2)=NC2=NC(=N4)c3cc(SC(C)(C)C)c(SC(C)(C)C)cc32)c(Cn2cc[n+](C)c2)c1.[I-].[I-].[I-] [C2Zn] | 105 ± 34 | 62 ± 11 |  |  | 0.30 | 718 | 0.70 | 1.67 ns |  | 65 ± 8 | 1.38 | 177 880 M^–1cm^–1 | 708 |  |  |  |  | 
CSc1cc2c(cc1SC)C1=Nc3c4cc(SC)c(SC)cc4c4[n]3[Zn][n]3c(c5cc(SC)c(SC)cc5c3=NC2=N1)=NC1=NC(=N4)c2cc(Oc3c(Cn4cc[n+](C)c4)cc(C)cc3Cn3cc[n+](C)c3)c(Oc3c(Cn4cc[n+](C)c4)cc(C)cc3Cn3cc[n+](C)c3)cc21.[I-].[I-].[I-].[I-] [C4Zn] | 79 ± 20 | 108 ± 24 |  |  | 0.21 | 709 | 0.44 |  |  | 61 ± 9 | 0.62 | 106 360 M^–1cm^–1 | 697 |  |  |  |  | 
Cc1cc(Cn2cc[n+](C)c2)c(Oc2cc3c(cc2Oc2c(Cn4cc[n+](C)c4)cc(C)cc2Cn2cc[n+](C)c2)C2=Nc4c5cc(Oc6c(Cn7cc[n+](C)c7)cc(C)cc6Cn6cc[n+](C)c6)c(Oc6c(Cn7cc[n+](C)c7)cc(C)cc6Cn6cc[n+](C)c6)cc5c5[n]4[Zn][n]4c(c6cc(Oc7c(Cn8cc[n+](C)c8)cc(C)cc7Cn7cc[n+](C)c7)c(Oc7c(Cn8cc[n+](C)c8)cc(C)cc7Cn7cc[n+](C)c7)cc6c4=NC4=NC(=N5)c5cc(Oc6c(Cn7cc[n+](C)c7)cc(C)cc6Cn6cc[n+](C)c6)c(Oc6c(Cn7cc[n+](C)c7)cc(C)cc6Cn6cc[n+](C)c6)cc54)=NC3=N2)c(Cn2cc[n+](C)c2)c1.[I-].[I-].[I-].[I-].[I-].[I-].[I-].[I-].[I-].[I-].[I-].[I-].[I-].[I-].[I-].[I-] [C12Zn] | 37 ± 6 | 45 ± 7 |  |  | 0.20 | 687 | 0.48 | 0.62 (7%) ns | 2.23 (93%) ns | 11 ± 3 | –2.08 | 244 030 M^–1cm^–1 | 679 | 2 | 1.3 |  |  | 
Cc1cc(Cn2c[n+](C)cn2)c(Oc2cc3c(cc2Oc2c(Cn4c[n+](C)cn4)cc(C)cc2Cn2c[n+](C)cn2)C2=Nc4c5cc(Oc6c(Cn7c[n+](C)cn7)cc(C)cc6Cn6c[n+](C)cn6)c(Oc6c(Cn7c[n+](C)cn7)cc(C)cc6Cn6c[n+](C)cn6)cc5c5[n]4[Zn][n]4c(c6cc(Oc7c(Cn8c[n+](C)cn8)cc(C)cc7Cn7c[n+](C)cn7)c(Oc7c(Cn8c[n+](C)cn8)cc(C)cc7Cn7c[n+](C)cn7)cc6c4=NC4=NC(=N5)c5cc(Oc6c(Cn7c[n+](C)cn7)cc(C)cc6Cn6c[n+](C)cn6)c(Oc6c(Cn7c[n+](C)cn7)cc(C)cc6Cn6c[n+](C)cn6)cc54)=NC3=N2)c(Cn2c[n+](C)cn2)c1.[I-].[I-].[I-].[I-].[I-].[I-].[I-].[I-].[I-].[I-].[I-].[I-].[I-].[I-].[I-].[I-] [C13Zn] | 12 ± 4 | 56 ± 6 |  |  | 0.20 | 687 | 0.37 | 0.60 (4%) ns | 2.27 (96%) ns | 5.3 ± 0.8 | –3.47 | 236 490 M^–1cm^–1 | 679 |  |  |  |  | 
NCCc1ccc(Oc2cccc3c2C2=NC3=Nc3c4ccccc4c4[n]3[Zn][n]3c(c5ccccc5c3=N2)=NC2=NC(=N4)c3ccccc32)cc1 [C15Zn] |  | 25 ± 6 |  | Partial monomerization | 0.20 | 684 | 0.53 | 1.23 (7%) ns | 2.96 (93%) ns |  | 3.32 | 136 590 M^–1cm^–1 | 675 |  |  | 50 ± 8 | 74 ± 22 | 
O=C([O-])c1c(Cl)c(Cl)c(Cl)c(Cl)c1-c1c2cc(I)c(=O)c(I)c-2oc2c(I)c([O-])c(I)cc12.[Na+].[Na+] [Rose Bengal] |  |  |  |  |  |  |  |  |  |  |  |  |  |  |  |  |  | 0.47
